Data set [1] has as its target bafilomycin-sensitive ATPase of chicken osteoclast. Nature of the data set: Inhibition of bafilomycin-sensitive ATPase activity in purified chicken osteoclast membrane vesicles (Pi release). Format: biochemical. As to conditions: membrane source not given, chicken osteoclast assumed. As for the experimental part:
Preparation of Crude Bone Microsomes from Calcium-starved Egg-laying Hens
Vesicles were prepared from medullar bone obtained from tibiae and femurs or egg-laying hens which were calcium-starved for at least 15 days. Briefly, bone fragments were scraped with a 24 scalpel blade, suspended in 40 ml of isolation medium (0.2 M sucrose, 50 mM KCl, 10 mM Hepes, 1 mM EGTA, 2 mM dithiotheitrol, pH 7.4) and filtered through a 100 μm pore size nylon mesh. The whole procedure was performed at 4° C. After homogenisation in a potter (20 strokes) in 40 ml of isolation medium an initial centrifugation (6,500×gmax×20 min) was performed to remove mitochondria and lysosomes. The supernatant was centrifuged at 100,000×gmax for 1 hr and the pellet was collected in 1 ml of isolation medium, divided into 200 μl aliquots, immediately frozen in liquid nitrogen and stored at −80° C. The protein content was determined using a Biorad colourimetric kit according to Bradford [M. Bradford, Anal. Biochem., 72, 248 (1976)]. For the proton transport assay, 5-10 μl of membranes were used.
Purification of osteoclast membranes. 1 ml of crude microsomal vesicles prepared above were applied (about 0.2 ml per tube ) on the top of a sucrose step-gradient consisting of 3.5 ml of 15%, 30% and 45% (w/w) sucrose in isolation medium and centrifuged at 280,000 gmax for 2 h (SW 41 Ti rotor). After centrifugation the 30-45% sucrose interfaces were collected, diluted approx. 20-fold in isolation medium and pelletted at 100,000 gmax for 1 hour (SW 28 rotor). […]
Inhibition of bafilomycin-sensitive ATPase activity was assessed in purified membrane vesicles by measuring the release of inorganic phosphate (Pi) during 30 min of incubation at 37° C. in a 96-well plate either in the presence or in the absence of bafilomycin A1. […] Absorbance at 650 nm was measured after 2 min using a microplate reader. Results are expressed as nmol (Pi)×mg protein^−1×min^−1 and, for each experiment, represent the mean±sem of triplicates.

For data set [2], the target named is bafilomycin-sensitive ATPase in human kidney membranes. Nature of the data set: Inhibition of bafilomycin-sensitive ATPase in human kidney membranes. Format: biochemical. The following applies: read-out: IC50 h kidney. As for the experimental part:
Human kidney membranes were obtained from the cortex of a human kidney, frozen immediately after surgery, according to the method reported in the literature for bovine kidney (S. Gluck, J Biol. Chem., 265, 21957 (1990)).
Inhibition of bafilomycin-sensitive ATPase activity was assessed in purified membrane vesicles by measuring the release of inorganic phosphate (Pi) during 30 min of incubation at 37° C. in a 96-well plate either in the presence or in the absence of bafilomycin A1. The reaction medium contained 1 mM ATP, 10 mM HEPES-Tris pH 8, 50 mM KCl, 5 uM valinomycin, 5 uM nigericin, 1 mM CDTA-Tris,100 uM ammonium molybdate, 0.2 M sucrose and membranes (20 ug protein/ml). The reaction was initiated by MgSO4 (8-arm pipette) and stopped, after 30 min, by addition of 4 volumes of the malachite green reagent (96-arm pipette) prepared according to Chan [Anal. Biochem. 157, 375 (1986)]. Absorbance at 650 nm was measured after 2 min using a microplate reader. Results are expressed as nmol (Pi)×mg protein^−1×min^−1 and, for each experiment, represent the mean±sem of triplicates.

For `CN1C(C)(C)CC(NC(=O)c2ccc(-c3cc4cc(Cl)c(Cl)cc4[nH]3)cc2)CC1(C)C` [Example 1, 4-(5,6-Dichloro-1H-indol-2-yl)-N-(1,2,2,6,6-pentamethypiperidin-4-yl)benzamide], the IC50 in data set [1] was determined as 0.35 µM; in data set [2], 1250 nM. The compound `CN(C)CCCNC(=O)c1cccc(-c2cc3cc(Cl)c(Cl)cc3[nH]2)c1` [Example 5, 3-(5,6-Dichloro-1H-indol-2-yl)-N-(3-dimethylaminopropyl)benzamide] displayed a melting point of 204 °C.

With `COc1cc(-c2cc3cc(Cl)c(Cl)cc3[nH]2)ccc1C(=O)NC1CC(C)(C)N(C)C(C)(C)C1` [Example 3, 4-(5,6-Dichloro-1H-indol-2-yl)-2-methoxy-N-(1,2,2,6,6-pentamethylpiperidin-4-yl)-benzamide], in data set [1], the IC50 amounted to 1.3 µM. As to `COc1cc(C(=O)NC2CC(C)(C)N(C)C(C)(C)C2)ccc1-c1cc2cc(Cl)c(Cl)cc2[nH]1` [Example 2, 4-(5,6-Dichloro-1H-indol-2-yl)-3-methoxy-N-(1,2,2,6,6-pentamethylpiperidin-4yl)-benzamide], the IC50 is 0.096 µM in data set [1] and 200 nM in data set [2].

(Values after patent US6506758B2, “Indole derivatives useful A.O. for the treatment of osteoporosis” (SmithKline Beecham Laboratoires Pharmceutiques, priority 1997, dated 2003).)
